Measurements published in patent US4311685A, “Assay method and kit” (Burroughs Wellcome Co., priority 1979, dated 1982).

Test: in vitro
Conditions: human, plasma

CC(C)NCC(O)COc1cccc2ccccc12 (racemic) [propranolol]
fraction unbound at 12 h, 0.07 µM: 0.117
